Values of other authors, collected in patent US20160338997A1, “KELOID REDUCTION USING TOPICAL ALLANTOIN” (Scioderm, Inc., priority 2013, published 2016).

Conditions: emulsion pH 6.8 to 7.5; with time and in accelerated stability tests at 40° C

degradation of allantoin: degrades significantly
SMILES: NC(=O)NC1NC(=O)NC1=O (stereo not shown) [allantoin]
